Measurements reported in patent US11739120B2, “Water soluble salts of lipidated peptides and methods for preparing and using the same” (Bridge Biotherapeutics, Inc., priority 2018, dated 2023).
Residues, ends and D or L forms follow the SMILES beside them. *: point of attachment. Palmitoyl = CCCCCCCCCCCCCCCC(=O)*

Columns and labels:
Type in all cases: physicochemical
[1] = Approximate solubility of Compound I-1 (amorphous) in different solvents (manual dilution, visual observation); details: ambient laboratory temperature
Method: In this Example, approximate solubility tests of Compound I-1 (amorphous) were conducted in the different solvents at ambient laboratory temperature. The solubility was also tested by manual dilution combined with visual observation. In particular, a known amount of Compound I-1 was weighed and added to a vial. A known amount of solvent was gradually added to the vial with constant stirring. The solvent addition was kept at a very slow rate to minimize any excess solvent beyond what is needed to fully dissolve the solids. In order to cross-check the solubility, a small amount of Compound I-1 was added to the vial to confirm that the solution became turbid.

[2] = Solubility of amorphous, Form A and Form E of Compound I-1 in water (shaken at 25° C., HPLC); details: for Final pH: mother liquor
Method: The solubility of amorphous, Form A or E of Compound I-1 in water was further studied. Specifically, about 250 mg Compound I-1 in amorphous, Forms A and E were each suspended in a 2 mL HPLC vial with 0.9 mL of water. Each suspension was then shaken at 25° C. under 1000 rpm. The suspensions were analyzed at 1 h and 24 h. In particular, at either the 1 h or 24 h time point, the slurries were centrifuged and analyzed by HPLC. The pH values of the mother liquors were measured, and the residues were characterized by XRPD.

[3] = Stabilities of amorphous Compound I-1 (ICH guideline, XRPD)
Method: Stabilities of amorphous Compound I-1 were also conducted according to ICH guideline.

[4] = Storage stability of formulations of amorphous Compound I-1; details: powder from capsules; 6 month at 25° C./60% RH or 40° C./75% RH
Method: This enteric coated capsule formulation was tested for stability and dissolution. […] Thus, this formulation can be storage stable.
This capsule formulation was also tested for stability and dissolution. […] Thus, Formulation B is also storage stable.
This capsule formulation was also tested for stability and dissolution.
This tablet formulation was also tested for stability and dissolution.

CCCCCCCCCCCCCCCC(=O)N1CCC[C@H]1C(=O)N1CCC[C@H]1C(=O)NCC(=O)N[C@@H](Cc1ccc(O)cc1)C(=O)[O-].[Na+] [Compound I-1 (Amorphous), sodium palmitoyl-L-prolyl-L-prolylglycyl-L-tyrosinate] (Palmitoyl-PPGY-OH)
solubility ([1]; 1,4-Dioxane): 33.3 to 50 mg/mL | solubility ([1]; 1-butanol): 50 to 100 mg/mL | solubility ([1]; 2-Methyl Tetrahydrofuran): > 100 mg/mL | solubility ([1]; Acetone): < 1 mg/mL | solubility ([1]; Acetone:H2O (1:2)): 50 to 100 mg/mL | solubility ([1]; Acetonitrile): < 1 mg/mL | solubility ([1]; Acetonitrile:H2O (1:1)): 50 to 100 mg/mL | solubility ([1]; Cyclohexane): < 1 mg/mL | solubility ([1]; DMF): 20 to 33.3 mg/mL | solubility ([1]; DMSO): 50 to 100 mg/mL | solubility ([1]; Ethanol): 50 to 100 mg/mL | solubility ([1]; Ethanol:H2O (1:1)): 50 to 100 mg/mL | solubility ([1]; Ethanol:H2O (3:1)): 50 to 100 mg/mL | solubility ([1]; Ethyl acetate): < 1 mg/mL | solubility ([1]; Heptane): < 1 mg/mL | solubility ([1]; Isopropyl acetate): < 1 mg/mL | solubility ([1]; Isopropyl alcohol): 50 to 100 mg/mL | solubility ([1]; Methanol): > 100 mg/mL | solubility ([1]; Methanol:H2O (1:1)): > 100 mg/mL | solubility ([1]; Methanol:H2O (3:1)): > 100 mg/mL | solubility ([1]; Methyl ethyl ketone): 3.3 to 5 mg/mL | solubility ([1]; Methyl isobutyl ketone): 1.2 to 1.4 mg/mL | solubility ([1]; Methyl t-butyl ether): < 1 mg/mL | solubility ([1]; N-methyl pyrrolidone): 50 to 100 mg/mL | solubility ([1]; Tetrahydrofuran): > 100 mg/mL | solubility ([1]; Tetrahydrofuran:H2O (1:1)): 50 to 100 mg/mL | solubility ([1]; Toluene): 50 to 100 mg/mL | solubility ([1]; Water): > 100 mg/mL | Final pH ([2]; water, 25° C., time point 1 hour): 9.05 | Final pH ([2]; water, 25° C., time point 24 hours): 9.03 | XRPD pattern (wet) ([2]; residue of the suspension in water, 25° C., time point 24 hours): Mostly D | Solubility at 25° C. ([2]; water, time point 1 hour): 239.1 mg/mL | solubility at 1 h ([2]; water, time point 1 hour): > 200 mg/mL | Solubility at 25° C. ([2]; water, time point 24 hours): 180.1 mg/mL | solubility at 24 h ([2]; water, time point 24 hours): ~180 mg/mL | form transformation (XRPD) ([3]; all tested conditions (40° C./75% RH with protection from moisture, 60° C., ambient) except high humidity): no form transformation | form transformation (XRPD) ([3]; high humidity condition for 1 week): could be transferred into Form A | crystalline conversion (X-ray diffractograms, FIG. 12) [4]: no crystalline conversion was observed
